The record followed here is patent US20240216312A1, “PPAR-AGONISTS FOR USE IN THE TREATMENT OF LIVER FAILURE” (Genfit, priority 2021, published 2024).

One test deals with THP1 macrophages. Put plainly: LPS (Klebsiella pneumoniae) activation of THP1 macrophages, MCP1 and TNFα secretion (HTRF). Format: cell-based, human. Conditions: 24 h, then LPS Klebsiella 6 h; for inhibition at 1 µM / inhibition at 10 µM: Homo sapiens; for inhibition at 1 µM: THP-1, 1 μM; for inhibition at 10 µM: THP-1, 10 μM. Here is the method:
In order to test the efficacy of the compounds on macrophage activation and pro-inflammatory cytokine production, 2.5×10^4 THP-1 cells were cultured in a 384-well plate and treated with 100 ng/mL PMA (#P8139, Sigma) for 24 h to induce differentiation into macrophages.
Then, medium was removed and FBS-deprived medium containing 1 or 10 μM compound was added for 24 h. Finally, THP1 macrophages were stimulated for 6 h with 100 ng/mL LPS (Klebsiella pneumoniae, #L4268, Sigma-Aldrich).
Monocyte chemoattractant protein 1 (MCP1) and Tumor necrosis α (TNFα) were measured in cell supernatants by Homogeneous Time Resolved Fluorescence (HTRF, #62[…] for TNFα, and 62HCCL2PEG for MCP1, Cisbio). Fluorescence was measured with Infinite 500 (#30019337, Tecan) to determine the concentration of cytokines.
In order to evaluate the effect of the compounds according to the invention on LPS-induced cytokines production by macrophages, the percentage of inhibition over the vehicle condition were calculated for each compound at 1 and 10 μM.
(TR-FRET usually uses a lanthanide donor and a delayed reading to cut background.)

The test system of another test is HepG2 cells. Kind of test: Staurosporin-induced apoptosis in HepG2 cells, caspase 3/7 activity. It counts as cell-based, human. The following applies: 16 h pre-treatment, then 10 μM staurosporin 4 h; for % Inhibition of caspase activity over mean Veh.: 0.3 μM; for inhibition at 0.3 µM: Homo sapiens, HepG2, 0.3 μM, read-out: % Inhibition of caspase activity over mean Veh. Here is the method:
In order to evaluate the effect of the compounds on human hepatocytes that undergo a cellular stress induced by staurosporin, the human hepatoblastoma-derived HepG2 cell line (ECACC, #85011430, Sigma-Aldrich) was cultured in high-glucose DMEM medium (#41965, Gibco, France) supplemented with 10% of fetal bovine serum (FBS, #10270, Gibco), 1% penicillin/streptomycin (#15140, Gibco), 1% sodium pyruvate (#11360, Gibco) and 1% MEM non-essential amino acids (#11140, Gibco) in a 5% CO2 incubator at 37° C.
To evaluate caspase 3/7 activity, which is a surrogate marker of apoptosis, 1.5×10^4 cells were plated in a 384-well plate (#781080, Greiner, France). After cell adherence (8 hours), cells were serum starved for 16 h in the presence of 0.3 μM of compounds or vehicle. Cpd.1 was also used at 3 and 10 μM. Thereafter, cells were treated with 10 μM staurosporin (#569397, Sigma-Aldrich, Germany) supplemented with compound for additional 4 hours before cell lysis and caspase activity measurement.
Caspase 3/7 activity was measured using Caspase Glow™ 3/7 assay (#G8093, Promega, USA). Luminescence was measured using a Spark microplate reader (#30086376, Tecan, USA). The amount of luminescence (RLU) directly correlates with caspase 3/7 activity.

The test system of test [1] is LPS/GaIN acute liver failure, C57BL/6J mice. Kind of test: LPS/GalN model of acute liver failure in mice, hepatic gene expression, serum cytokines and albumin. It counts as in vivo, mouse. The following applies: mouse serum, 1 mg/kg/day oral 3 days before LPS/GaIN, 4 h after injection.
Test [2] has as its system LPS-induced endotoxemia, Sprague Dawley rats. Put plainly: LPS-induced endotoxemia in rats, hepatic markers and serum TNFα. Format: in vivo. The following applies: rat, 100 mg/kg/day oral 3 days before LPS, 3 h after LPS.
The mark [3] stands for this setting: read-out: % inhibition of MCP1 secretion over mean Veh.
The mark [4] stands for this setting: read-out: % inhibition of TNFα secretion over mean Veh.

Read-outs that look alike come from different tables or passages of the source.

On to `Cc1cc(CCC(=O)c2ccc(OC(F)(F)F)cc2)cc(C)c1OC(C)(C)C(=O)O` [Cpd. 2, 2-[2,6-dimethyl-4-[3-[4-(trifluoromethyloxy)phenyl]-3-oxo-propyl]phenoxy]-2-methylpropanoic acid], for which the inhibition at 1 µM with THP1 macrophages (setting [3]) was 96%.

With `Cc1cc(CCC(=O)c2ccc(C(F)(F)F)cc2)cc(C)c1OC(C)(C)C(=O)O` [Cpd. 3, 2-[2,6-dimethyl-4-[3-[4-(trifluoromethyl)phenyl]-3-oxo-propyl]phenoxy]-2-methylpropanoic acid], the inhibition at 1 µM in the test on THP1 macrophages (setting [3]) is 90%. For the same compound, in the test on THP1 macrophages (setting [4]), the inhibition at 1 µM amounted to 0% and the inhibition at 10 µM lay within 11 to 58%.

In the case of `COC(CCc1cc(C)c(OC(C)(C)C(=O)O)c(C)c1)c1ccc(SC)cc1` (stereo not drawn) [Cpd. 4, 2-[2,6-dimethyl-4-[3-[4-(methylthio)phenyl]-3-methoxypropyl]phenoxy]-2-methylpropanoic acid], the “% inhibition of MCP1 secretion over mean Veh.” value (“% inhibition of MCP1 secretion” for short) in the test with THP1 macrophages (10 μM, 10 µM) stood at 110%. In addition, the inhibition at 1 µM in the test with THP1 macrophages (setting [3]) stood at 100%. Besides, in the test on HepG2 cells, the “% Inhibition of caspase activity over mean Veh.” value is 32% and the inhibition at 0.3 µM lay within 26 to 79%.

In the case of `CSc1ccc(C(CCc2cc(C)c(OC(C)(C)C(=O)O)c(C)c2)OC(C)C)cc1` (stereo not drawn) [Cpd. 5, 2-[2,6-dimethyl-4-[3-[4-(methylthio)phenyl]-3-isopropyloxypropyl]phenoxy]-2-methylpropanoic acid], the inhibition at 1 µM in the test with THP1 macrophages (setting [3]) was 93%.

In the case of `Cc1cc(CCC(O)c2ccc(OC(F)(F)F)cc2)cc(C)c1OC(C)(C)C(=O)O` (stereo not drawn) [Cpd. 6, 2-(4-(3-hydroxy-3-(4-(trifluoromethoxy)phenyl)propyl)-2,6-dimethylphenoxy)-2-methylpropanoic acid], the inhibition at 1 µM with THP1 macrophages (setting [3]) was 94%. Further, the inhibition at 0.3 µM with HepG2 cells lay within 26 to 79%.

Take `CON=C(CCc1cc(C)c(OC(C)(C)C(=O)O)c(C)c1)c1ccc(OC(F)(F)F)cc1` [Cpd. 7, 2-(4-(3-(methoxyimino)-3-(4-(trifluoromethoxy)phenyl)propyl)-2,6-dimethylphenoxy)-2-methylpropanoic acid]: the values for the inhibition at 1 µM with THP1 macrophages (setting [3]) and in the test with THP1 macrophages (setting [4]) were 95% and 25%, respectively.

As for `CCOC(CCc1ccc(OC(C)(C)C(=O)O)c(Cl)c1Cl)c1sc(-c2ccc(C(F)(F)F)cc2)nc1C` (stereo not drawn) [Cpd. 9, 2-(2,3-dichloro-4-(3-ethoxy-3-(4-methyl-2-(4-(trifluoromethyl)-phenyl)thiazol-5-yl)propyl)phenoxy)-2-methylpropanoic acid], the inhibition at 1 µM stood at 86% with THP1 macrophages (setting [3]) and 3% in the test with THP1 macrophages (setting [4]).

For the compound `COC(CCc1cc(C)c(OC(C)(C)C(=O)O)c(C)c1)c1ccc(C(F)(F)F)cc1` (stereo not drawn) [Cpd. 13, 2-(4-(3-methoxy-3-(4-(trifluoromethyl)phenyl)propyl)-2,6-dimethylphenoxy)-2-methylpropanoic acid], in the test with THP1 macrophages (10 μM, 10 µM), the “% inhibition of MCP1 secretion” value was determined as 111% and the “% inhibition of TNFα secretion over mean Veh.” value (“% inhibition of TNFα secretion” for short) is reported as 18%. In addition, the inhibition at 1 µM with THP1 macrophages (setting [3]) was 99%. In addition, in the test on THP1 macrophages (setting [4]), the inhibition at 1 µM came to 0% and the inhibition at 10 µM lay in the range of 11 to 58%. In addition, the “% Inhibition of caspase activity over mean Veh.” value with HepG2 cells turned out to be 79%.

As for `COC(CCc1cc(C)c(OC(C)(C)C(=O)O)c(C)c1)c1ccc(Br)cc1` (stereo not drawn) [Cpd. 14, 2-[2,6-dimethyl-4-[3-[4-bromophenyl]-3-methoxypropyl]phenoxy]-2-methylpropanoic acid], the results for the inhibition at 1 µM with THP1 macrophages (setting [3]) and with THP1 macrophages (setting [4]) were 91% and 18%, respectively.

Turning to `CC(C)(Oc1ccc(CCNC(=O)c2ccc(Cl)cc2)cc1)C(=O)O` [Cpd. 17, bezafibrate, reference compound], in the test with THP1 macrophages (setting [3]), the inhibition at 1 µM came out at 22% and the inhibition at 10 µM lay in the range of 54 to 132%.

In the case of `CC[C@@H](Oc1cccc(CN(CCCOc2ccc(OC)cc2)c2nc3ccccc3o2)c1)C(=O)O` [Cpd. 18, pemafibrate, reference compound], in test [1], the “decrease of circulating IL10 level compared to vehicle” value came out at 52% and the serum albumin level entry is reported as “restore albumin concentration”.

As for `CC(C)OC(=O)C(C)(C)Oc1ccc(C(=O)c2ccc(Cl)cc2)cc1` [Cpd. 19, fenofibrate], in test [2], the “reduction of LPS-induced serum TNFα level” value is on record as 85% and the “restoration of serum albumin concentration compared to vehicle” value is 79%.

With `CCO[C@H](COc1ccc(C(F)(F)F)cc1)CSc1ccc(OCC(=O)O)c(C)c1.NCCCC[C@H](N)C(=O)O.O.O` [Cpd. 20, seladelpar lysine, reference compound], in the test on THP1 macrophages (1 μM), the “% inhibition of MCP1 secretion” value turned out to be 105%.

On to `CCc1ccc(CCOc2ccc(CC3SC(=O)NC3=O)cc2)nc1` (stereo not drawn) [Cpd. 21, pioglitazone, reference compound], for which the results for the inhibition at 1 µM in the test on THP1 macrophages (setting [3]) and in the test with THP1 macrophages (setting [4]) were 80% and 0%, respectively. The inhibition at 10 µM with THP1 macrophages (setting [4]) fell in the range of 11 to 58%.

Turning to `CN(CCOc1ccc(CC2SC(=O)NC2=O)cc1)c1ccccn1` (stereo not drawn) [Cpd. 22, rosiglitazone, reference compound], in the test on THP1 macrophages (1 μM), the “% inhibition of MCP1 secretion” value was 79% and the “% inhibition of TNFα secretion” value was found to be 36%. Besides, in the test on THP1 macrophages (10 μM, 10 µM), the “% inhibition of MCP1 secretion” value stood at 117% and the “% inhibition of TNFα secretion” value amounted to 11%.

For the compound `O=C(O)CCCc1cc2cc(Cl)ccc2n1S(=O)(=O)c1ccc2ncsc2c1` [Cpd. 23, lanifibranor, reference compound], the figures for the inhibition at 1 µM in the test with THP1 macrophages (setting [3]) and in the test on THP1 macrophages (setting [4]) were 100% and 15%, respectively.

One may read the inhibition as the relative decrease from the control value, in per cent.
